{
  "source": "PubChem BioAssay AID492987",
  "about": "(Johns Hopkins Ion Channel Center, 2010)",
  "note": "The source made the active and inactive calls.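 Rule for the calls: active = over 30% block of the TRPC6 ion channel at some tested dose, plus a fitted dose-response curve; inactive = no block at any dose, or no fitted curve.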",
  "data": [
    {"target": "Short transient receptor potential channel 6 (Mus musculus) (UniProt Q61143)", "sequence (Q61143 whole entry, looked up)": "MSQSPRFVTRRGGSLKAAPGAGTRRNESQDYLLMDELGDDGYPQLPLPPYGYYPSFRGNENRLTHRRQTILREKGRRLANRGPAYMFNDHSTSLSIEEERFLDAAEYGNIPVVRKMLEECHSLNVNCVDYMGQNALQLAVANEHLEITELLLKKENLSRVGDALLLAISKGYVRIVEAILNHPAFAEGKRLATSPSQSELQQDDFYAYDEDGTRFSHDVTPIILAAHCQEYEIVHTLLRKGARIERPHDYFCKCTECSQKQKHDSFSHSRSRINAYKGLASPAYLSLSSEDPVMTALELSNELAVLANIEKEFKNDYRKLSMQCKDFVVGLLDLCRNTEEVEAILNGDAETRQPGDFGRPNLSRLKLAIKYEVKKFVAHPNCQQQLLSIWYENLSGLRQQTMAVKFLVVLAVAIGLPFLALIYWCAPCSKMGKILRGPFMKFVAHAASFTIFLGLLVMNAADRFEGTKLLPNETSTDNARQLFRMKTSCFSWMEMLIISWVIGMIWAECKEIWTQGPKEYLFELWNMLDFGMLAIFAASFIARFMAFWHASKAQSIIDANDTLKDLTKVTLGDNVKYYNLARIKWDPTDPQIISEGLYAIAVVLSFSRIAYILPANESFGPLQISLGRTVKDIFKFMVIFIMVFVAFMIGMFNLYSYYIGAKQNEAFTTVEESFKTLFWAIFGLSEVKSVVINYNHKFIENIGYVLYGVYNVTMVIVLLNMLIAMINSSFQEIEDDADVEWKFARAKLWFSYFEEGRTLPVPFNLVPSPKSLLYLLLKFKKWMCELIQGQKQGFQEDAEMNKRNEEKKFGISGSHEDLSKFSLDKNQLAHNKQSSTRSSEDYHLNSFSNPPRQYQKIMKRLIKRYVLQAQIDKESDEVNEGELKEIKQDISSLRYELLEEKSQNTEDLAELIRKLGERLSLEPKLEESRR", "assay": "TRPC6 inhibition potency of TRPC4 inhibitor analogs, dose response, selectivity assay for selective TRPC4 inhibitor project, HEK293 cells, membrane potential dye, IC50 (AID 492987)", "details": "at 20 µM (top of the series)", "values": [
      {"smiles": "Cc1cc(N2CCCCCC2)nc2c(C)cccc12", "fluorescence ratio, lower = inhibition": "inactive"},
      {"smiles": "Cc1cc(N2CCN(c3ncccn3)CC2)nc2ccccc12", "fluorescence ratio, lower = inhibition": "inactive"},
      {"smiles": "CCN(CC)c1cc(C)c2ccccc2n1", "fluorescence ratio, lower = inhibition": "inactive"},
      {"smiles": "Cc1ccnc(N2CCCCC2)n1", "fluorescence ratio, lower = inhibition": "inactive"},
      {"smiles": "Cc1ccnc(N2CCCCCC2)c1", "fluorescence ratio, lower = inhibition": "inactive"},
      {"smiles": "FC(F)(F)c1cc(N2CCCCCC2)nc2ccccc12", "fluorescence ratio, lower = inhibition": "inactive"},
      {"smiles": "COc1ccc(N2CCN(c3cc(C)c4ccccc4n3)CC2)cc1", "fluorescence ratio, lower = inhibition": "inactive"},
      {"smiles": "Cc1cc(N2CCC(C)CC2)nc2ccccc12", "fluorescence ratio, lower = inhibition": "inactive"},
      {"smiles": "c1ccc(-c2cc(N3CCCCCC3)nc3ccccc23)cc1", "fluorescence ratio, lower = inhibition": "inactive"},
      {"smiles": "c1ccc(-c2cc(N3CCCC3)nc3ccccc23)cc1", "fluorescence ratio, lower = inhibition": "inactive"},
      {"smiles": "COCCN(C)c1cc(C)c2ccccc2n1", "fluorescence ratio, lower = inhibition": "inactive"},
      {"smiles": "COc1ccccc1N1CCN(c2cc(C)c3ccccc3n2)CC1", "fluorescence ratio, lower = inhibition": "inactive"},
      {"smiles": "Cc1cc(N2CCN(c3ccccc3C#N)CC2)nc2ccccc12", "fluorescence ratio, lower = inhibition": "inactive"},
      {"smiles": "c1ccc(-c2cc(N3CCCCC3)nc3ccccc23)cc1", "fluorescence ratio, lower = inhibition": "inactive"},
      {"smiles": "Cc1cc(N2CCCCCC2)nc2ccc(F)cc12", "fluorescence ratio, lower = inhibition": "inactive"},
      {"smiles": "Cc1cc(N2CCCC(O)C2)nc2ccccc12", "note": "(stereo not given)", "fluorescence ratio, lower = inhibition": "inactive"},
      {"smiles": "Cc1cc(N2CCCCC2)nc2c(C)cccc12", "fluorescence ratio, lower = inhibition": "inactive"},
      {"smiles": "Cc1cc(N2CC(C)CC(C)C2)nc2ccccc12", "note": "(stereo not given)", "fluorescence ratio, lower = inhibition": "inactive"},
      {"smiles": "Cc1ccnc(N2CCCC2)n1", "fluorescence ratio, lower = inhibition": "inactive"},
      {"smiles": "Cc1cc(N(C)CCN(C)C)nc2ccccc12", "fluorescence ratio, lower = inhibition": "inactive"},
      {"smiles": "Cc1ccnc(N2CCCCCC2)n1", "fluorescence ratio, lower = inhibition": "inactive"},
      {"smiles": "CCc1ccc2nc(N3CCCCCC3)cc(C)c2c1", "fluorescence ratio, lower = inhibition": "inactive"},
      {"smiles": "FC(F)(F)c1cc(N2CCCCC2)nc2ccccc12", "fluorescence ratio, lower = inhibition": "inactive"},
      {"smiles": "Cc1cc(N2CCN(C)CC2)nc2ccccc12", "fluorescence ratio, lower = inhibition": "inactive"},
      {"smiles": "Cc1ccnc(N2CCCCC2)c1", "fluorescence ratio, lower = inhibition": "inactive"},
      {"smiles": "Cc1cc(N2CCOCC2)nc2ccccc12", "fluorescence ratio, lower = inhibition": "inactive"},
      {"smiles": "Cc1ccnc(N2CCCC2)c1", "fluorescence ratio, lower = inhibition": "inactive"},
      {"smiles": "Cc1cc(N2CCN(CC3CCCO3)CC2)nc2ccccc12", "note": "(stereo not given)", "fluorescence ratio, lower = inhibition": "inactive"},
      {"smiles": "Cc1cc(N2CCOc3ccccc32)nc2ccccc12", "fluorescence ratio, lower = inhibition": "inactive"}
    ]},
    {"target": "Short transient receptor potential channel 6 (Mus musculus) (UniProt Q61143)", "assay": "TRPC6 inhibition potency of TRPC4 inhibitor analogs, dose response, selectivity assay for selective TRPC4 inhibitor project, HEK293 cells, membrane potential dye, IC50 (AID 492987)", "details": "membrane potential dye fluorescence", "units": {"IC50": "µM"}, "values": [
      {"smiles": "Cc1cc(N2CCCCC2)nc2ccccc12", "IC50": 17.9}
    ]}
  ]
}
